Calls of active or inactive are those of the source. The calls are words filed in the database; no cut-off is given here.
Columns and labels:
[1] = target: T1, Acetylcholinesterase (Bos taurus, UniProt P23795)
T1 sequence (P23795 whole entry): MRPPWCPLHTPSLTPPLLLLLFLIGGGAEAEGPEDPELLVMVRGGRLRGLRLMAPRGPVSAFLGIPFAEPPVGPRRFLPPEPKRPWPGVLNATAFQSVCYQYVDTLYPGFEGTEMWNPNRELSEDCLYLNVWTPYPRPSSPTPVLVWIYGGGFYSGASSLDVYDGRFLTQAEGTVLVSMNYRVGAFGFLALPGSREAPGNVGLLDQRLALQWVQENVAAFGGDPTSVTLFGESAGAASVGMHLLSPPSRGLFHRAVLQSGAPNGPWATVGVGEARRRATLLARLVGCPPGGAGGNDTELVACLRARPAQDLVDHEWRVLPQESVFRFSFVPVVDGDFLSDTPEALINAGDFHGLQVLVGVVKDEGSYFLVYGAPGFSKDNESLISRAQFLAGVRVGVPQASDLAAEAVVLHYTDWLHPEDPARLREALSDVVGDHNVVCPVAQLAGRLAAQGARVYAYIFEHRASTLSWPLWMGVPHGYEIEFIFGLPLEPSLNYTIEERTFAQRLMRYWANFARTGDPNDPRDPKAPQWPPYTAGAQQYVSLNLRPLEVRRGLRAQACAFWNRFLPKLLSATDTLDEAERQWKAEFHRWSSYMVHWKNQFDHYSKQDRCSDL
Description: Inhibition of bovine erythrocyte AChE by Ellman's reaction

[2] = target: Cholinesterase (Equus caballus, UniProt P81908)
Description: Inhibition of horse serum BChE by Ellman's reaction

[3] = target: Cholinesterase (Homo sapiens, UniProt P06276)
Description: Inhibition of human serum BChE by Ellman's reaction

[4] = target: Acetylcholinesterase (Homo sapiens, UniProt P22303)
Description: Inhibition of human erythrocyte AChE by Ellman's reaction

[5] = Permeability by PAMPA method; type: ADME; settings: read-out: permeability
[6] = test system: SH-SY5Y; test: Neuroprotective activity against rotenone-induced cell death in human SH-SY5Y cells assessed as lactate dehydrogenase release at 3 uM after 24 hrs; type: functional
[7] = Metal chelating activity assessed as formation of iron complex in Tris buffer at pH 7.4 at 22.5 uM after 30 mins by UV-vis spectrometry; type: functional
[8] = Metal chelating activity assessed as formation of copper complex in Tris buffer at pH 7.4 at 22.5 uM after 1 min by UV-vis spectrometry; type: functional
[9] = Metal chelating activity assessed as formation of copper complex in Tris buffer at pH 7.4 at 22.5 uM by UV-vis spectrometry; type: functional
[10] = test system: SH-SY5Y; test: Cytotoxicity against human SH-SY5Y cells assessed as lactate dehydrogenase release at 3 uM after 24 hrs; type: cell-based

Chain of Cholinesterase (Equus caballus, UniProt P81908) (P81908 whole entry): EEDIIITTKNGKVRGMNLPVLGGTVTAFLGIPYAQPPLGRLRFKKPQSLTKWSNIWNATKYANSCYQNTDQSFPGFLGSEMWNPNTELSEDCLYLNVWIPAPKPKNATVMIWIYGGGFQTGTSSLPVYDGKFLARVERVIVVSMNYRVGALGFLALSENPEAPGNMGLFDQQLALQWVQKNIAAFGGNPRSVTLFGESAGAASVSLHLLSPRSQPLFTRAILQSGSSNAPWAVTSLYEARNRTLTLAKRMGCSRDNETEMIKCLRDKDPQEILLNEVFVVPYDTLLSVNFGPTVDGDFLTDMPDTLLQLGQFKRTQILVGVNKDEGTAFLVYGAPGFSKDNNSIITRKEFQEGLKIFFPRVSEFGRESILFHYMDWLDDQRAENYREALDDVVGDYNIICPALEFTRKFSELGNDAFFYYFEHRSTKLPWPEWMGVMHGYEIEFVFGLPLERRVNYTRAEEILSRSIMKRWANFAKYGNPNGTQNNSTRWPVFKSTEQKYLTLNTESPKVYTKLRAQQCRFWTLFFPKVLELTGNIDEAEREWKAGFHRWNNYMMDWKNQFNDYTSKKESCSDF
Chain of Acetylcholinesterase (Homo sapiens, UniProt P22303) (P22303 whole entry): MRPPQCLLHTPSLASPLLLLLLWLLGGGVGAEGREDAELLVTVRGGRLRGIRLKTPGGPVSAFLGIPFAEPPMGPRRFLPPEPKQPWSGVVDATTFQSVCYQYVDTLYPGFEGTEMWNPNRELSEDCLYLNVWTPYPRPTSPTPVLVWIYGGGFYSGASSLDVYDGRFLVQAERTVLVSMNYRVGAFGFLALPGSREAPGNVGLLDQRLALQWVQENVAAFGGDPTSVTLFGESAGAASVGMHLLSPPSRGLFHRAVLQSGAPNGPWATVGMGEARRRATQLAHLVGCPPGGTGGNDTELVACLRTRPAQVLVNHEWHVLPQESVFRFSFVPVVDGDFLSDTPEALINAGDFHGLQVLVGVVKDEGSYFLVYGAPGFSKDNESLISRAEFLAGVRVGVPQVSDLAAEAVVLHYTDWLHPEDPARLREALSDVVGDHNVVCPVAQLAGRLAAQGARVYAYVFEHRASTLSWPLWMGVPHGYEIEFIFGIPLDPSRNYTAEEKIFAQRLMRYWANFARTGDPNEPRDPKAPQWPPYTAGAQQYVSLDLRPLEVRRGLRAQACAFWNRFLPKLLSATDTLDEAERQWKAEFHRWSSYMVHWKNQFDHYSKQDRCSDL
Chain of Cholinesterase (Homo sapiens, UniProt P06276) (P06276 whole entry): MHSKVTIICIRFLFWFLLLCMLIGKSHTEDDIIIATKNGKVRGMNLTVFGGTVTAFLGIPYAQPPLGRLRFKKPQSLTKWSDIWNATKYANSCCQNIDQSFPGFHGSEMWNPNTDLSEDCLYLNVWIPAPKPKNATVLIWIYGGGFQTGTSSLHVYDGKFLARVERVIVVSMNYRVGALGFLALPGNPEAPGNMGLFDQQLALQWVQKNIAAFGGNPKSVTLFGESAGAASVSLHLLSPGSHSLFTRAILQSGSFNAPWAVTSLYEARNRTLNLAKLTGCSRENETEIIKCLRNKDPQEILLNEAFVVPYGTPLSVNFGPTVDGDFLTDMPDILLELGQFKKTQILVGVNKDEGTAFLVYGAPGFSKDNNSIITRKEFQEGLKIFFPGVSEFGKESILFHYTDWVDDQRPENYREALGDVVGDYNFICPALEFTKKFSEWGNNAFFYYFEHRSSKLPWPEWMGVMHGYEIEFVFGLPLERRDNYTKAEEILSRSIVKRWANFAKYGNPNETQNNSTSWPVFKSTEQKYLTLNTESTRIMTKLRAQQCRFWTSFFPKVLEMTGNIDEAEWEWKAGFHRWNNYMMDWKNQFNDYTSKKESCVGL

SMILES	IC50 [1]	IC50 [2]	also measured
Oc1c(CNCCCCCCCCCCNc2c3c(nc4ccccc24)CCCC3)ccc2cccnc12	50 nM	65 nM	
Cc1ccc2ccc(CNCCCCCCCNc3c4c(nc5ccccc35)CCCC4)c(O)c2n1	200 nM		
Cc1ccc2ccc(CNCCCCCCCCCNc3c4c(nc5ccccc35)CCCC4)c(O)c2n1	100 nM		
Cl.Cl.Cl.Oc1c(CNCCCCCCCCCNc2c3c(nc4ccccc24)CCCC3)cc(Cl)c2cccnc12	85 nM	6.5 nM	IC50 [3]: 55 nM; IC50 [4]: 1 nM; Papp [5]: 10 ×10⁻⁶ cm/s
Cc1ccc2ccc(CNCCCCCCCCCCNc3c4c(nc5ccccc35)CCCC4)c(O)c2n1	70 nM	7 nM	
Cl.Cl.Oc1c(CNCCCCCCCCCNc2c3c(nc4ccccc24)CCCC3)ccc2cccnc12	20 nM	5 nM	Activity [6]: 30%; IC50 [3]: 20 nM; Activity [7]: inactive; IC50 [4]: 5.5 nM; Activity [8]: inactive; Papp [5]: 17.4 ×10⁻⁶ cm/s; Activity [9]: Active; Activity [10]: Toxic
Oc1cccc2cccnc12 [OXYQUINOLINE]			IC50 [3]: > 100 nM; IC50 [4]: > 100 nM
Oc1c(CNCCCCCCCCCCCCNc2c3c(nc4ccccc24)CCCC3)ccc2cccnc12	250 nM		
Oc1c(CNCCCCCCCNc2c3c(nc4ccccc24)CCCC3)ccc2cccnc12	25 nM	150 nM	
CN(CCCNCc1ccc2cccnc2c1O)CCCNc1c2c(nc3ccccc13)CCCC2	80 nM	50 nM	
CN(CCCNCc1cc(Cl)c2cccnc2c1O)CCCNc1c2c(nc3ccccc13)CCCC2	90 nM	30 nM	
Oc1c(CNCCCCCCCCNc2c3c(nc4ccccc24)CCCC3)ccc2cccnc12	90 nM	30 nM	
Oc1c(CNCCCCCCNc2c3c(nc4ccccc24)CCCC3)ccc2cccnc12	200 nM		
Oc1c(CNCCCCCCCCCCCCNc2c3c(nc4ccccc24)CCCC3)cc(Cl)c2cccnc12	400 nM		
Cc1ccc2ccc(CNCCCCCCCCNc3c4c(nc5ccccc35)CCCC4)c(O)c2n1.Cl.Cl	75 nM	2 nM	IC50 [3]: 6.5 nM; IC50 [4]: 0.5 nM; Papp [5]: 14.1 ×10⁻⁶ cm/s
Oc1c(CNCCCCCCCCNc2c3c(nc4ccccc24)CCCC3)cc(Cl)c2cccnc12	150 nM		
Oc1c(CNCCCCCCCCCCNc2c3c(nc4ccccc24)CCCC3)cc(Cl)c2cccnc12	100 nM		
Cc1ccc2ccc(CNCCCN(C)CCCNc3c4c(nc5ccccc35)CCCC4)c(O)c2n1	200 nM		
